Like-named read-outs stand apart in the source and are kept apart here.
Assays:
PR [1] = molecular target: T1, PR (Homo sapiens, UniProt P06401); assay: Co-transfection assay, PR antagonist activity (CV-1 cells, in presence of progesterone); assay type: cell-based; design: expressed in transfected cells; host or cells: CV-1 cells; settings: for PR Antagonist CV-1 Cells Efficacy (%): percent maximal inhibition, progesterone at its EC50
T1 sequence (P06401 1-933): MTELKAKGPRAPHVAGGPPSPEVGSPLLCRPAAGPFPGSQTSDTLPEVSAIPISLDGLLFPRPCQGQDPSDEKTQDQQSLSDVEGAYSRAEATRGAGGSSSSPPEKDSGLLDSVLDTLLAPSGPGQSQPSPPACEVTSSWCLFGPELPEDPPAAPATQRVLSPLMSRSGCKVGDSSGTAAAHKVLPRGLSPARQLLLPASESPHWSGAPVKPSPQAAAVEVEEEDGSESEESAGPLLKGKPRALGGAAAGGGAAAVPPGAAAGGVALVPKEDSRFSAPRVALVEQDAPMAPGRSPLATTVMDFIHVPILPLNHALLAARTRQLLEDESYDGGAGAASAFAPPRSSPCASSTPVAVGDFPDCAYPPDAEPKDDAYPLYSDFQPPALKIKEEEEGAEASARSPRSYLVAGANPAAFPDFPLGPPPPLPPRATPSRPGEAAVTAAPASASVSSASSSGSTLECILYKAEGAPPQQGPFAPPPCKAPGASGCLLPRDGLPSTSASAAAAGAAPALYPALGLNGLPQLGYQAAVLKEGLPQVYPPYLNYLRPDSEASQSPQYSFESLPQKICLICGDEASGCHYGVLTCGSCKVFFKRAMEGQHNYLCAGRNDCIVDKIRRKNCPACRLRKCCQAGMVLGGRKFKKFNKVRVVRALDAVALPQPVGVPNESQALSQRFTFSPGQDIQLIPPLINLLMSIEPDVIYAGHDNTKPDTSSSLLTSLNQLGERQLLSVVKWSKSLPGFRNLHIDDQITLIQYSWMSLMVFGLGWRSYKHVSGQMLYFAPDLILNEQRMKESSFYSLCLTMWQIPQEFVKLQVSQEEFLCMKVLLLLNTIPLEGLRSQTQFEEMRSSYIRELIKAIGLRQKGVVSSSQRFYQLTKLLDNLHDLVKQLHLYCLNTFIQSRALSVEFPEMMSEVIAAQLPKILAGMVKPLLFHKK

PR [2] = molecular target: T1, PR; assay: Co-transfection assay, PR agonist activity (CV-1 cells); assay type: cell-based; design: expressed in transfected cells; host or cells: CV-1 cells; settings: for PR Agonist CV-1 Cells Efficacy (%): percent maximal response relative to reference agonist progesterone; for EC50: agonist potency EC50
PR [3] = molecular target: T1, PR; assay: PR competitive binding assay; settings: Cheng-Prusoff
Procedure: (§1) After correcting for non-specific binding, IC50 values were determined. […] The IC50 value was determined graphically from a log-logit plot of the data. The Ki values were determined by application of the Cheng-Prusoff equivuation to the IC50 values, the labeled ligand concentration and the Kd of the labeled ligand.

human AR [4] = molecular target: T2, human AR (Homo sapiens, UniProt P10275); assay: Co-transfection assay, AR agonist activity (CV-1 cells, MTV-LUC reporter); assay type: cell-based; settings: CV-1 cells; for EC50: agonist potency EC50; for AR Agonist CV-1 Cells Efficacy (%): percent maximal response relative to reference agonist DHT
T2 sequence (P10275 1-920): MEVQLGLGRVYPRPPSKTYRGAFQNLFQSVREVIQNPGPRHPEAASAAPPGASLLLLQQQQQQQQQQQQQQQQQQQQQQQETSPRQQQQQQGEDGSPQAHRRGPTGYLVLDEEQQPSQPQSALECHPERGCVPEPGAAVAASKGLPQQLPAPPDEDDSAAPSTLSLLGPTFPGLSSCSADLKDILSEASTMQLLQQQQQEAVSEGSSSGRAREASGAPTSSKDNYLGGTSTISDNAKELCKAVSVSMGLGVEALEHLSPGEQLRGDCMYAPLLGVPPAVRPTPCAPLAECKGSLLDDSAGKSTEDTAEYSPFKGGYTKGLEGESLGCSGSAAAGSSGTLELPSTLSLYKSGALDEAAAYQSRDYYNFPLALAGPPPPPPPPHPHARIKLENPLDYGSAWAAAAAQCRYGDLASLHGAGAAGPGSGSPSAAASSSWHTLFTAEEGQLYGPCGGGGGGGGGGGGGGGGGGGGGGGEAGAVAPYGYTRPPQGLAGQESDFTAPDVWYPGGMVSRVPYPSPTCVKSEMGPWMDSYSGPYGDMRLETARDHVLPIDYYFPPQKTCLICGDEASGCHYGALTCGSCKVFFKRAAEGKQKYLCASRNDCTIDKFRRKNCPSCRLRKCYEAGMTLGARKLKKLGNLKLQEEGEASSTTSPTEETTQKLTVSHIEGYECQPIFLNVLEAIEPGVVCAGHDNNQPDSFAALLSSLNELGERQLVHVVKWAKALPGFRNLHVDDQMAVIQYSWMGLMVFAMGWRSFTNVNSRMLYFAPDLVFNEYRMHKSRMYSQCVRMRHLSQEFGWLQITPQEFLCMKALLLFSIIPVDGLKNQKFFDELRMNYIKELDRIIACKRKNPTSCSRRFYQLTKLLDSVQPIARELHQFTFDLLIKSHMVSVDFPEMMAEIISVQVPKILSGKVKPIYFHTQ

human AR [5] = molecular target: T2, human AR; assay: Co-transfection assay, AR antagonist activity (CV-1 cells, in presence of DHT); assay type: cell-based; settings: for AR Antagonist CV-1 Cells Efficacy (%): percent maximal inhibition, DHT at its EC50; for IC50: read-out: AR Antagonist CV-1 Cells Potency
human AR [6] = molecular target: T2, human AR; assay: AR whole cell competitive binding assay (COS-1 cells, 3H-DHT); settings: 1 nM 3H-DHT, Cheng-Prusoff
Procedure: AR Binding: For the whole cell binding assay, COS-1 cells in 96-well microtiter plates containing DMEM-10% FBS were transfected as described above with the following plasmid DNA: pRShAR (2 ng/well), pRS-β-Gal (50 ng/well) and pGEM (48 ngcwell). Six hours after transfection, media was removed, the cells were washed with PBS and fresh media was added. The next day, the media was changed to DMEM-serum free to remove any endogenous ligand that might be complexed with the receptor in the cells.
Three replicates were used for each sample. […] The remaining media was removed, the cells were washed three times with PBS to remove unbound ligand, and cells were lysed with a Triton X-100-based buffer.
For the saturation analyses, the difference between the total binding and the nonspecific binding, normalized by the β-Gal rate, was defined as specific binding. […] The Ki values were determined by application of the Cheng-Prusoff equation to the IC50 values, where:
as §1

[7] = read-out: PR Antagonist CV-1 Cells Potency

Compound | PR Antagonist CV-1 Cells Efficacy (%) (PR [1]) | PR Agonist CV-1 Cells Efficacy (%) (PR [2]) | IC50 (PR [1]) [nM] | EC50 (PR [2]) [nM] | Ki (PR [3]) [nM] | IC50 (PR [1]; [7]) [nM] | EC50 (human AR [4]) [nM] | AR Agonist CV-1 Cells Efficacy (%) (human AR [4]) | AR Antagonist CV-1 Cells Efficacy (%) (human AR [5]) | IC50 (human AR [5]) [nM] | Ki (human AR [6]) [nM]
CC(=O)[C@H]1CC[C@H]2[C@@H]3CCC4=CC(=O)CC[C@]4(C)[C@H]3CC[C@]12C [Prog, progesterone, reference compound] | na (na = not active (i.e. efficacy of <20 and potency of >10,000)) | 100% |  |  |  |  |  |  |  |  | 
CCCC(C)N(CCC)c1ccc2[nH]c(=O)cc(C(F)(F)F)c2c1 (racemic) [Compound 251, (±)-6-(N-Propyl-N-1-methylbutyl)amino-4-trifluoromethyl-2(1H)-quinolinone] | 91% | na (na = not active (i.e. efficacy of <20 and potency of >10,000)) | 747 | > 10000 | 930 |  |  |  |  |  | 
CC1(C)OC(=S)Nc2ccc(C3=CC(O)CCC3)cc21 (racemic) [Compound 697, (±)-6-(3-Hydroxy-1-)cyclohexenyl-1,4-dihydro-4,4-dimethyl-1,3-benzo[d]oxazin-2-thione] | 58% | na (na = not active (i.e. efficacy of <20 and potency of >10,000)) |  | > 10000 | > 1000 | 316 |  |  |  |  | 
FC(F)(F)c1cc(=S)[nH]c2ccc(C3CCCCC3)cc12 [Compound 631, 6-Cyclohexyl-4-trifluoromethyl-2(1H)-thioquinolinone] | 75% | na (na = not active (i.e. efficacy of <20 and potency of >10,000)) | 796 | > 10000 | 136 |  |  |  |  |  | 
CC(=O)c1cccc(-c2ccc3[nH]c(=O)cc(C(F)(F)F)c3c2)c1 [Compound 735, 4-Trifluoromethyl-6-(3-acetylphenyl)-2(1H)-quinolinone] | 84% | na (na = not active (i.e. efficacy of <20 and potency of >10,000)) | 326 | > 10000 | 915 |  |  |  |  |  | 
CC1(C)OC(=O)Nc2ccc(C3CCCCCC3)cc21 [Compound 671, 6-(1-Cycloheptyl)-1,4-dihydro-4,4-dimethyl-1,3-benzo[d]oxazin-2-one] | 62% | na (na = not active (i.e. efficacy of <20 and potency of >10,000)) |  | > 10000 | > 1000 | 200 |  |  |  |  | 
O=c1cc(C(F)(F)F)c2cc(-c3cccc([N+](=O)[O-])c3)ccc2[nH]1 [Compound 727, 4-Trifluoromethyl-6-(3-nitro)phenyl-2(1H)-quinolinone] | 90% | na (na = not active (i.e. efficacy of <20 and potency of >10,000)) | 108 | > 10000 | 161 |  |  |  |  |  | 
CC1(C)OC(=S)Nc2ccc(C3=CC(=O)CCC3)cc21 [Compound 695, 6-(3-Oxo-1-)cyclohexenyl-1,4-dihydro-4,4-dimethyl-1,3-benzo[d]oxazin-2-thione] | 90% | na (na = not active (i.e. efficacy of <20 and potency of >10,000)) |  | > 10000 | 203 | 20 |  |  |  |  | 
CN(C)c1ccc([C@H]2C[C@]3(C)[C@@H](CC[C@]3(O)CCCO)[C@@H]3CCC4=CC(=O)CCC4=C32)cc1 [ZK299, reference compound] | 95% | na (na = not active (i.e. efficacy of <20 and potency of >10,000)) |  |  |  |  |  |  |  |  | 
N#Cc1cc(F)cc(-c2ccc3[nH]c(=O)cc(C(F)(F)F)c3c2)c1 [Compound 731, 4-Trifluoromethyl-6-(3-fluoro-5-cyano)phenyl-2(1H)-quinolinone] | 89% | na (na = not active (i.e. efficacy of <20 and potency of >10,000)) | 64 | > 10000 | 154 |  |  |  |  |  | 
CCCN(CC1CC1)c1ccc2[nH]c(=O)cc(C(F)(F)F)c2c1 [Compound 254, 6-(N-Propyl-N-cyclopropylmethyl)amino-4-trifluoromethyl-2(1H)-quinolinone] |  |  |  |  |  |  | 0.9 | 78 | na (na = not active (i.e. efficacy of <20 and potency of >10,000)) | > 10000 | 12
CCCN(c1ccc2[nH]c(=O)cc(C(F)(F)F)c2c1)C(C)CC (racemic) [Compound 255, (±)-6-(N-Propyl-N-1-methylpropyl)amino-4-trifluoromethyl-2(1H)-quinolinone] |  |  |  |  |  |  | 25 | 135 | na (na = not active (i.e. efficacy of <20 and potency of >10,000)) | > 10000 | 67
O=c1cc(C(F)(F)F)c2cc(N3CCCCC3)ccc2[nH]1 [Compound 311, 6-(1-Piperidinyl)-4-trifluoromethyl-2(1H)-quinolinone] |  |  |  |  |  |  | 143 | 42 | 38% | 13 | 12
O=c1[nH]c2cc(NC3CCCC3)ccc2c(C(F)(F)F)c1F [Compound 536, 3-Fluoro-7-cyclopentylamino-4-trifluoromethyl-2(1H)-quinolinone] |  |  |  |  |  |  | > 10000 |  | 76% | 28 | 188
O=c1cc(C(F)(F)F)c2cc(-c3cccc(F)c3)ccc2[nH]1 [Compound 741, 4-Trifluoromethyl-6-(3-fluorophenyl)-2(1H)-quinolinone] |  |  |  |  |  |  | > 10000 |  | 92% | 27 | 322
C[C@@H]1CC[C@H](C)N1c1ccc2[nH]c(=O)cc(C(F)(F)F)c2c1 [Compound 328, 6-(2,5-cis-Dimethyl-1-pyrrolidino)-4-trifluoromethyl-2(1H)-quinolinone] |  |  |  |  |  |  | 1.7 | 93 | na (na = not active (i.e. efficacy of <20 and potency of >10,000)) | > 10000 | 48
O=c1cc(C(F)(F)F)c2cc(NCC(Cl)(Cl)Cl)ccc2[nH]1 [Compound 227, 6-(N-2,2,2-Trichloroethyl)amino-4-trifluoromethyl-2(1H)-quinolinone] |  |  |  |  |  |  | > 10000 |  | 73% | 14 | 38
Cn1c(=O)cc(C(F)(F)F)c2cc(N(CC(F)(F)F)CC(F)(F)F)ccc21 [Compound 297, 1-Methyl-6-(bis-2,2,2-trifluoroethyl)amino-4-trifluoromethyl-2(1H)-quinolinone] |  |  |  |  |  |  | 22 | 43 | 43% | 3.2 | 58
